Results published in patent US6297230A, “Cyanoaziridines for treating cancer” (priority 2000, dated 2001).
Converted amounts (≈) assume the structure as drawn. “Also recorded” adds a separate entry of the source.

Key:
[1] = system: 8226/I-R myeloma cells; assay: MTT growth inhibition, imexon-resistant 8226 myeloma cells; type: cell-based, human; settings: for IC50: Homo sapiens, imexon-resistant 8226, read-out: IC50; for IC50 / Fold Resistance of IC50 R/IC50 's: Table 5; for Cross-resistance with imexon: 8226 imexon-resistant vs parental; for Fold Resistance of IC50 R/IC50 's: imexon-resistant vs sensitive 8226
Summary of the method: (§1)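 Parental 8226/S and imexon-resistant 8226/I-R myeloma cells (selected with imexon up to 3.25 mg/mL) were exposed to drug continuously for 10 days at 37 °C. Viability was measured by MTT absorbance at 570 nm relative to untreated controls. IC50 was taken as the concentration giving 50% growth inhibition, from at least 2 assays.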

[2] = system: MCF-7/MITOX cells; assay: In vitro antitumor activity, MCF-7/MITOX; type: cell-based; settings: Homo sapiens, MCF7/Mitox; MCF-7 breast, mitoxantrone resistant
From the text: 1) in vitro tumor cell viability assays using MTT and SRB dye reaction endpoints.
Sulforhodamine B (SRB) Assay for Adherent Tumor Cells
Sulforhodamine B (SRB) is a protein binding aminoxanthene dye with two sulfonic acid groups. (Lillie, R. D., H. J. Conn's Biological Stains, 9th Ed., Baltimore; Williams & Wilkins, 1977.) It quantitates whole cell protein content by the intensity of dye staining and relates this to the number of viable cells. […] The SRB assay is used for cells which normally adhere to surfaces (in this case plastic culture flasks or petri dishes) as part of their requirement for growth and division in vitro. The SRB assay is currently used by the National Cancer Institute in the anticancer drug screening program. (Skehan, et al., J Natl Cancer Inst 82:1107-1112, 1990; Rubinstein, et al., J Natl Cancer Inst 82:1113-1118, 1990.) Methodologic comparisons have shown that SRB results are linear for the number of tumor cells over a 100-fold range, and for protein content determined by a modified Lowry method or Standard Bradford (Bradford, M., Anal Biochem 72:248-254, 1976) methods. […] (Lillie, R. D., H. J. Conn's Biological Stains, 9th Ed., Baltimore; Williams & Wilkins, 1977.)
Cell cultures of 10^3 -10^7 cells growing in 96-well plastic microtiter plates are fixed with 50% trichloroacetic acid (TCA) for 30 minutes at 4° C. The cells are then stained with 0.4% (w/v) sulforhodamine B (SRB) dissolved in 1% acetic acid. Unbound dye is removed by 4 washes with 1% acetic acid, and protein-bound dye is extracted with 10 mM unbuffered Tris® base [tris(hydroxymethyl)aminomethane]. The optical density (OD) of this extracted solution is measured at […] in a microtiter plate ultraviolet absorbance detector. Cell viability is expressed as percent of control by dividing the optical densities and multiplying the result by 100.
Microculture Tetrazolium (MTT) Assay for Tumor Cells
(§2) Tumors are disaggregated into single cell suspensions using mechanical, hypoosmotic, and/or enzymatic (trypsin) methods. The cells are plated at a concentration of 3-5×10^4 per […] well into plastic 96-well plates. Growth medium containing 5-10% (vol/vol) heat-inactivated fetal bovine serum and penicillin/streptomycin (both […]) are added prior to incubation at 37° C. for 6 days. Afterwards the medium containing the drug is removed, the cells are centrifuged in fresh medium or phosphate-buffered saline (pH 7.4). A tetrazolium dye, […]-2,5-diphenyl tetrazolium (MTT), is then added. (Mossman, T., J Immunol 65:55-63, 1983.) This dye forms a colored formazan product upon activation by mitochondrial reductases in viable cells. Typically, the formazan product is solubilized in acid-propanol or DMSO. The intensity of the color is proportional to viable cell numbers and this is quantitated by spectrophotometric absorbance at 570 nm on a micro ELISA plate reader. The results are calibrated in % control absorbance from untreated tumor cells. (Alley, et al., Cancer Res 48:589-601, 1988.)
Table 3 gives the potencies of the new aziridine-1-carboxamides in a panel of human and murine tumor cells in culture. The tumor cell lines in this table are selected to represent a range of histological and growth phenotypes. Their characteristics are described below.
1.3 MCF-7/D40 and MCF-7/MITOX cell lines were developed by chronic exposure in vitro to increasing concentrations of the DNA-intercalating antitumor agents doxorubicin and mitoxantrone, respectively. […] The MCF-7/D40 cells express the cell membrane efflux pump, P-glycoprotein and are over 40-fold resistant to doxorubicin, mitoxantrone and the vinca alkaloids, vinblastine and vincristine.

[3] = system: L-1210 MDR leukemia cells; assay: MTT growth inhibition, multidrug-resistant L-1210 leukemia cells; type: cell-based, mouse; settings: for Fold Resistance of IC50 's (MDR/S): L-1210 MDR vs sensitive, 11520 min; for IC50: Mus musculus, L1210, 192 h, MDR L-1210, drug continuously present 8 days, read-out: IC50
Method: as §2
In addition, the imexon analogs have also been tested in a multidrug-resistant (MDR) mouse L-1210 leukemia cell line.
L-1210 MDR Cells represent a multidrug-resistant cell line developed for resistance to the alkylating agent mitomycin C. (Dorr, et al., Biochem Pharmacol 36(19):3115-3120, 1987.) This cell line has the same general growth characteristics of the parental line, but is cross-resistant to numerous natural-product based anticancer agents. This includes anthracyclines such as doxorubicin (Adriamycin®) and vinca alkaloids such as vincristine or vinblastine.
*Drug continuously present for 8 days; IC50 measured by MTT dye

[4] = system: 8226/S myeloma cells; assay: MTT growth inhibition, parental 8226 myeloma cells; type: cell-based, human; settings: for IC50: Homo sapiens, Table 5, Sensitive (parental) 8226, read-out: IC50; for Potency relative to imexon: myeloma cells
Summary of the method: as §1

| Structure (SMILES) | IC50 [1] [µg/mL] | IC50 [2] [µg/mL] | Fold Resistance of IC50 's (MDR/S) [3] | IC50 [3] [µg/mL] | IC50 [4] [µg/mL] | Cross-resistance with imexon [1] | Fold Resistance of IC50 R/IC50 's [1] | Enhanced potency: decrease in IC50 against myeloma cell growth ([4]; compared with imexon) [%] | Potency relative to imexon [4] |
| --- | --- | --- | --- | --- | --- | --- | --- | --- | --- |
| N#CC1CN1C(=O)NC1CCCCC1 (stereo not shown) [AMP 413, 2-Cyanoaziridine-1-(N-cyclohexyl)carboxamide] | 19 (≈ 98.3 µM) | 1.9 (≈ 9.83 µM) | 2.2 | 3.1 (≈ 16 µM) | 7 (≈ 36.2 µM) | – | – | – | – |
| N#CC1CN1C(=O)Nc1ccc(F)cc1 (stereo not shown) [AMP 415, 2-Cyanoaziridine-1-[N-(4-fluorophenyl)]carboxamide] | 1.2 (≈ 5.85 µM) | 0.6 (≈ 2.92 µM) | 0.8 | 1.2 (≈ 5.85 µM) | 1 (≈ 4.87 µM) | lack of significant (>50% IC50 change) cross-resistance with imexon; also recorded: no significant cross resistance | 1.2 | > 40 | roughly equal potency to imexon |
| N#CC1CN1C(=O)Nc1ccc(C(F)(F)F)cc1 (stereo not shown) [AMP 416, 2-Cyanoaziridine-1-[N-(4-trifluorophenyl)]carboxamide] | 2 (≈ 7.84 µM) | 0.3 (≈ 1.18 µM) | 0.9 | 1.8 (≈ 7.05 µM) | 2.1 (≈ 8.23 µM) | lack of significant (>50% IC50 change) cross-resistance with imexon; also recorded: no significant cross resistance | 0.95 | – | roughly equal potency to imexon |
